Assay [1] addresses T1, Thyroid hormone receptor alpha (Homo sapiens, UniProt P10827).
T1 sequence (P10827 whole entry): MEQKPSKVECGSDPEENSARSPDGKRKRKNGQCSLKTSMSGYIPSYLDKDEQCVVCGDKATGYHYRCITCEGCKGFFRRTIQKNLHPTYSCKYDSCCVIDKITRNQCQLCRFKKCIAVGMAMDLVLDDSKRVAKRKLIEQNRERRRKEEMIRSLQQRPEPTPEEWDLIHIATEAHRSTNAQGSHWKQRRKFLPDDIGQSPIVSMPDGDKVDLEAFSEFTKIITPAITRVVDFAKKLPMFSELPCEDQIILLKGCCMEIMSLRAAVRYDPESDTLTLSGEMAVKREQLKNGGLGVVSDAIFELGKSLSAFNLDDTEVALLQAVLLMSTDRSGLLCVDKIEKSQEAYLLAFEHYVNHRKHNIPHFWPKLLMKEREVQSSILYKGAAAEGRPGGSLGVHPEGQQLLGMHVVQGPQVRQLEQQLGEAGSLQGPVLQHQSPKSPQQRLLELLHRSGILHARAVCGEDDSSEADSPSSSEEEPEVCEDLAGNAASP
The experiment in a line: Inhibition of TRalpha-LBD (unknown origin) interaction to texas red-labeled SRC2-2 peptide by fluorescence polarization assay.

Assay [2] addresses T2, Thyroid hormone receptor beta (Homo sapiens, UniProt P10828).
T2 sequence (P10828 whole entry): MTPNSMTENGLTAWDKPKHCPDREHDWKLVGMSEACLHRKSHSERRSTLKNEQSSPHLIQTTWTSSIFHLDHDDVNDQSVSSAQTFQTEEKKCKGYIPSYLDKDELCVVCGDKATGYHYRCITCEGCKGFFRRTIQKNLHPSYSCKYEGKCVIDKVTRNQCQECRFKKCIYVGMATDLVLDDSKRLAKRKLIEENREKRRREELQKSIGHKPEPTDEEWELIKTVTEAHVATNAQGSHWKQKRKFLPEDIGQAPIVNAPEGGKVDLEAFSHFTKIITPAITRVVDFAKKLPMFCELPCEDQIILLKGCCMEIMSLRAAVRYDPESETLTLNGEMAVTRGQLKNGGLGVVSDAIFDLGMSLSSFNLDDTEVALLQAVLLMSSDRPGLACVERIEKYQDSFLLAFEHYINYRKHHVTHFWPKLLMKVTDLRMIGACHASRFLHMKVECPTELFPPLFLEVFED
In words: Inhibition of TRbeta-LBD (unknown origin) interaction to texas red-labeled SRC2-2 peptide by fluorescence polarization assay. On the technique in general: In fluorescence polarisation assays a small probe gives low polarisation when free and higher when bound to something large.

In another assay the test system is HepG2. The experiment in a line: Cytotoxicity against human HepG2 cells assessed as ATP level after 72 hrs by CellTiter-Glo assay. It is filed as cell-based. Conditions: HepG2, 72 h.
The target of the next assay is T3, Vitamin D3 receptor (Homo sapiens, UniProt P11473).
T3 sequence (P11473 whole entry): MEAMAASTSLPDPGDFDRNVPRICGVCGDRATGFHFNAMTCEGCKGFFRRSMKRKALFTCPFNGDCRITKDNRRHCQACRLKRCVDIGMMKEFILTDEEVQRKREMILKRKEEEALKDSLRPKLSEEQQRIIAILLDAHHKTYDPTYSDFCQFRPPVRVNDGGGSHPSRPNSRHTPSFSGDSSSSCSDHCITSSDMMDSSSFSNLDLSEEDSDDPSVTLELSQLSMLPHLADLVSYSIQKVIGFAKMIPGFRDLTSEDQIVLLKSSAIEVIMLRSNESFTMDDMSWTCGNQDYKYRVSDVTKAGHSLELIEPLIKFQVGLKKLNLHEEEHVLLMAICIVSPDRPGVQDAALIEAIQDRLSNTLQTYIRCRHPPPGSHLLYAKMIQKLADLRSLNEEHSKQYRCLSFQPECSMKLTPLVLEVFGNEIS
The experiment in a line: Inhibition of VDR (unknown origin) interaction to SRC2-3 peptide by fluorescence polarization assay.

The target in assay [3] is Thyroid hormone receptor (Homo sapiens) (UniProt P10827+P10828). The experiment in a line: Inhibition of thyroid hormone receptor-mediated PEPCK gene transcription in thyroid hormone treated human HepG2 cells by RT-PCR analysis. In kind it is cell-based.

One may read the IC50 as the concentration at which inhibition is half-maximal. As usually defined, the EC50 is the concentration that produces a half-maximal response.

On to `CS(=O)(=O)c1ccc(C(=O)NCC(=O)N(Cc2ccccc2)Cc2ccccc2)cc1[N+](=O)[O-]`, for which the IC50 in assay [1] is 1.7 µM; in assay [2], 3.6 µM; at Vitamin D3 receptor it was above 60 µM. Besides, the EC50 with HepG2 was determined as 11.9 µM. Further, the inhibition result in assay [3] was “Dose-dependent effect”.
In the case of `CN(Cc1ccccc1)C(=O)CN(C)C(=O)c1ccc(S(C)(=O)=O)c([N+](=O)[O-])c1`, the IC50 (in assay [1]; in assay [2]; against Vitamin D3 receptor) was above 60 µM throughout. In addition, the EC50 with HepG2 is above 27 µM.
With `CS(=O)(=O)c1ccc(C(=O)NCCC(=O)N2Cc3ccccc3C2)cc1[N+](=O)[O-]`, the IC50 (in assay [1]; in assay [2]; against Vitamin D3 receptor) was above 60 µM each time. For the same compound, the EC50 with HepG2 is 11.2 µM.
In the case of `CCCN(C(=O)CCNC(=O)c1ccc(S(C)(=O)=O)c([N+](=O)[O-])c1)c1ccccc1`, the values for the IC50 (in assay [1]; in assay [2]; against Vitamin D3 receptor) were 32 µM, 50 µM and 40 µM, respectively. Besides, the EC50 in the assay on HepG2 is above 27 µM.
As to `CC1Cc2ccccc2N1C(=O)CCCNC(=O)c1ccc(S(C)(=O)=O)c([N+](=O)[O-])c1` (stereo unspecified), the 50% inhibitory concentration (IC50) (in assay [1]; in assay [2]; at Vitamin D3 receptor) was above 60 µM throughout. In the assay with HepG2, the EC50 is above 27 µM.

The values are drawn from ChEMBL document CHEMBL2346513, “Synthesis and evaluation of methylsulfonylnitrobenzamides (MSNBAs) as inhibitors of the thyroid hormone receptor-coactivator interaction” (Bioorg Med Chem Lett, 2013).
